Results from BindingDB's records for doi:10.3109/14756366.2011.649269 (Università di Firenze, 2013).

Experiments:
Test in all cases: Carbonic Anhydrase I, II, IV and XII Assay
Details in all cases: pH 7.5; 25 °C
Carbonic anhydrase 1 = Carbonic anhydrase 1 (Homo sapiens, UniProt P00915)
Procedure: (§1) An Applied Photophysics stopped-flow instrument has been used for assaying the CA catalysed CO2 hydration activity [Khalifah et al., J. Biol. Chem., 246:2561-2573]. Phenol red (at a concentration of 0.2 mM) has been used as indicator, working at the absorbance maximum of 557 nm, with 10-20 mM Hepes (pH 7.5) as buffer, and 20 mM Na2SO4 (for maintaining constant the ionic strength), following the initial rates of the CA-catalyzed CO2 hydration reaction for a period of 10-100 s. The CO2 concentrations ranged from 1.7 to 17 mM for the determination of the kinetic parameters and inhibition constants. For each inhibitor at least six traces of the initial 5-10% of the reaction have been used for determining the initial velocity. The uncatalyzed rates were determined in the same manner and subtracted from the total observed rates. Stock solutions of inhibitor (10 mM) were prepared in distilled-deionised water and dilutions up to 0.01 nM were done thereafter with distilled-deionised water. Inhibitor and enzyme solutions were preincubated together for 15 min at room temperature prior to assay, in order to allow for the formation of the E-I complex.

Carbonic anhydrase 12 = Carbonic anhydrase 12 (Homo sapiens, UniProt O43570)
Procedure: as §1

Carbonic anhydrase 2 = Carbonic anhydrase 2 (Homo sapiens, UniProt P00918)
Procedure: as §1

Carbonic anhydrase 4 = Carbonic anhydrase 4 (Homo sapiens, UniProt P22748)
Procedure: as §1

Sequence of Carbonic anhydrase 12 (O43570 whole entry): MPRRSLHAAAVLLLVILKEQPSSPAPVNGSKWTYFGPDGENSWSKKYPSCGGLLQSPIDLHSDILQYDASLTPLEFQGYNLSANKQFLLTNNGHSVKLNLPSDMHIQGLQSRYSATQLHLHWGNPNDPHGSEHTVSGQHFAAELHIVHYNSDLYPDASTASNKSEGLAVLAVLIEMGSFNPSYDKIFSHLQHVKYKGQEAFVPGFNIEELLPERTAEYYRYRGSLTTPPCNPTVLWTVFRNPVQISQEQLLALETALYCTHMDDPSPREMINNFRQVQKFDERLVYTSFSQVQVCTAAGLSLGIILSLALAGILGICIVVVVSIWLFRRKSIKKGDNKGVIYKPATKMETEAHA
Sequence of Carbonic anhydrase 4 (P22748 whole entry): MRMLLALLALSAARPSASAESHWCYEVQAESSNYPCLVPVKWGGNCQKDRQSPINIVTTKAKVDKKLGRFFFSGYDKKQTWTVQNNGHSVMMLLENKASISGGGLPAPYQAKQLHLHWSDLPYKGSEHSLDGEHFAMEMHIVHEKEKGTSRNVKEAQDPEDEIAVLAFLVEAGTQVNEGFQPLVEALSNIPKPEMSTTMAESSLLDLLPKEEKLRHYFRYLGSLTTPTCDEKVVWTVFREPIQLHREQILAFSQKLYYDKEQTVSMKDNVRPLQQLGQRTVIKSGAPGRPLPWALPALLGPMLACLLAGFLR
Sequence of Carbonic anhydrase 1 (P00915 whole entry): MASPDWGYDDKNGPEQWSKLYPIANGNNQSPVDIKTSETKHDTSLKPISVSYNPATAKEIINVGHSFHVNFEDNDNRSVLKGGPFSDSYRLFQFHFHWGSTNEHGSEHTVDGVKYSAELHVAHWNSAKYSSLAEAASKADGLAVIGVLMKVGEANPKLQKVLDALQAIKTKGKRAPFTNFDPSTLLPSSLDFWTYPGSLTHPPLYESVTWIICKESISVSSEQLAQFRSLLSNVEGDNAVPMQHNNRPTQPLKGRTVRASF

Row | SMILES | IC50 (Carbonic anhydrase 1) | IC50 (Carbonic anhydrase 12) | IC50 (Carbonic anhydrase 2) | IC50 (Carbonic anhydrase 4)
1 | CCN(CC)CCOc1ccc(CNS(=O)(=O)c2ccc(S(N)(=O)=O)cc2)cc1 [N-(4-diethylaminoethoxybenzyl)benzene-1,4-bis-sulfonamide (I-3)] | 59.8 nM | 737 nM | 81.1 nM | 508 nM
2 | NS(=O)(=O)c1ccc(S(=O)(=O)NCCCN2CCOCC2)cc1 [N-(3-morpholinopropyl)benzene-1,4-disulfonamide (I-2)] | 57.7 nM | 517 nM | 65.8 nM | 499 nM
3 | NS(=O)(=O)c1ccc(C(=O)NCCCN2CCOCC2)cc1 [4-Sulfamoyl-N-(3-morpholinopropyl)benzamide (I-1)] | 231 nM | 645 nM | 216 nM | 611 nM
